Counter-ions that a name gives are not always drawn.

One may read the melting point as the temperature, or range, at which the solid turns liquid. `COc1ccc(C)c(Nc2c(C#N)cnc3c2C=C2N=C(NCCN4CCOCC4)N=C2C3)c1` [Example 31, 8-(5-Methoxy-2-methylanilino)-2-{[2-(4-morpholinyl)ethyl]amino}imidazo [4,5-g]quinoline-7-carbonitrile] returned a melting point of 148 to 150 °C.

With `N#Cc1cnc2cc3c(cc2c1Nc1ccc(Oc2ccccc2)cc1)ncn3CCN1CCOCC1` [Example 58, 3-[2-(4-Morpholinyl)ethyl]-8-(4-phenoxyanilino)-3H-imidazo[4,5-g]quinoline-7-carbonitrile], the melting point is > 260 °C. `COc1cc2cc3c(Nc4ccc(Sc5nccn5C)c(Cl)c4)c(C#N)cnc3cc2cc1OCCn1ccnn1` [Example 154, 4-[3-Chloro-4-(1-methyl-1H-imidazol-2-ylsulfanyl)phenylamino]-7-methoxy-8-(2-[1,2,3]triazol-1-yl-ethoxy)benzo[g]quinoline-3-carbonitrile]: the melting point is 201 to 207 °C.

For `COc1ccc2cc3c(Nc4ccc(Cl)cc4Cl)c(C#N)cnc3cc2c1` [Example 104, 4-(2,4-Dichloroanilino)-8-methoxybenzo[g]quinoline-3-carbonitrile], the melting point was > 260 °C. With `COc1cc2cc3ncc(C#N)c(Nc4ccc(Cl)cc4Cl)c3cc2cc1OCCN1CCOCC1`, the melting point is 115 to 119 °C (dec.).

As to `COc1cc(Nc2c(C#N)cnc3c2sc2ccc(N)cc23)c(C)cc1Cl` [Example 76, 8-Amino-4-(4-chloro-5-methoxy-2-methylanilino)[1]benzothieno[3,2-b]pyridine-3-carbonitrile], the melting point was 266 to 268 °C (dec.). Take `COc1cc(Nc2c(C#N)cnc3cc4cc(OCCN5CCC(O)CC5)c(OC)cc4cc23)c(Cl)cc1C`: the melting point was 210 to 215 °C. `COc1cc2cc3c(Nc4ccc(Sc5nccn5C)c(Cl)c4)c(C#N)cnc3cc2cc1OCCCCl` [Example 150, 4-[3-Chloro-4-(1-methyl-1H-imidazol-2-ylsulfanyl)phenylamino]-8-(3-chloropropoxy)-7-methoxybenzo[g]quinoline-3-carbonitrile]: the melting point is > 300 °C. As to `COc1cc2cc3c(Nc4ccc(F)c(Cl)c4)c(C#N)cnc3cc2cc1OCCN1CCOCC1` [Example 205, 4-(3-Chloro-4-fluoroanilino)-7-methoxy-8-[2-(4-morpholinyl)ethoxy]benzo[g]quinoline-3-carbonitrile], the melting point was in the range of 237 to 242 °C. Turning to `COc1cc(Nc2c(C#N)cnc3cc4cc(OCCCl)c(OC)cc4cc23)c(C)cc1Cl` [Example 122, 4-(4-chloro-5-methoxy-2-methylanilino)-7-methoxy-8-(chloroethoxy)benzo[g]quinoline-3-carbonitrile], the melting point was 132 to 168 °C (dec.).

As to `C=CC(=O)Nc1ccc2sc3c(Nc4cccc(Br)c4)c(C#N)cnc3c2c1` [Example 93, N-[4-(3-Bromoanilino)-3-cyano[1]benzothieno[3,2-b]pyridin-8-yl]acrylamide], the melting point was > 300 °C (dec.). Under `N#Cc1cnc2c(sc3ccc([N+](=O)[O-])cc32)c1Nc1cccc(Br)c1` [Example 91, 4-(3-Bromoanilino)-8-nitro[1]benzothieno[3,2-b]pyridine-3-carbonitrile] stands > 300 °C; under `COc1cc2cc3ncc(C#N)c(Nc4ccc(F)c(Cl)c4)c3cc2cc1OC` (as salt: salt) [Example 13, 4-(3-Chloro-4-fluoroanilino)-7,8-dimethoxybenzo[g]quinoline-3-carbonitrile], > 280 °C; under `COc1cc2cc3c(Nc4ccc(Sc5nccn5C)c(Cl)c4)c(C#N)cnc3cc2cc1OCCCl` [Example 148, 8-(2-Chloroethoxy)-4-[3-chloro-4-(1-methyl-1H-imidazol-2-ylsulfanyl)phenylamino]-7-methoxybenzo[g]quinoline-3-carbonitrile], 275 to 280 °C.

`N#Cc1cnc2c(sc3c(N)cccc32)c1Nc1cccc(Br)c1` [Example 81, 6-Amino-4-(3-bromoanilino)[1]benzothieno[3,2-b]pyridine-3-carbonitrile] had a melting point of 256 to 258 °C.

For the molecule `COc1cc2cc3ncc(C#N)c(Nc4cc(OC)c(OC)c(OC)c4)c3cc2cc1OCCN1CCOCC1`, the melting point is 135 to 138 °C (dec.). Regarding `N#Cc1cnc2c(sc3ccc(N)cc32)c1Nc1cccc(Br)c1` [Example 92, 8-Amino-4-(3-bromoanilino)-[1]benzothieno[3,2-b]pyridine-3-carbonitrile], the melting point was 295 to 300 °C (dec.).

On to `Cc1ccc(Nc2c(C#N)cnc3c2C=C2N=CN=C2C3)cc1O` [Example 41, 8-(3-Hydroxy-4-methylphenylamino)imidazo[4,5-g]quinoline-7-carbonitrile], for which the melting point is 257 to 260 °C (dec.). With `N#Cc1cnc2c(sc3ccccc32)c1Nc1cccc(Br)c1` [Example 65, 4-(3-Bromophenylamino)benzo[4,5]thieno[3,2-b]pyridine-3-carbonitrile], the melting point fell in the range of 240 to 242 °C. As for `Cc1ccc(Nc2c(C#N)cnc3c2oc2ccccc23)cc1O` [Example 87, 4-(3-Hydroxy-4-methylphenylamino)benzo[4,5]furo[3,2-b]pyridine-3-carbonitrile], the melting point was 240 °C (dec.).

`N#Cc1cnc2c(sc3ccccc32)c1Oc1ccc(Cl)cc1F` [Example 71, 4-(4-Chloro-2-fluorophenoxy)benzo[4,5]thieno[3,2-b]pyridine-3-carbonitrile] came in with a melting point of 174 to 175 °C. In the case of `COc1cc2cc3ncc(C#N)c(Nc4ccc(Oc5ccccc5)cc4)c3cc2cc1OC` (as salt: salt) [Example 11, 7,8-Dimethoxy-4-(4-phenoxyanilino)benzo[g]quinoline-3-carbonitrile], the melting point is > 265 °C. With `N#Cc1cnc2c(sc3ccccc32)c1Nc1ccc(Cl)cc1F` [Example 66, 4-(4-Chloro-2-fluorophenylamino)benzo[4,5]thieno[3,2-b]pyridine-3-carbonitrile], the melting point lay within 250 to 251 °C. Regarding `COc1cc2cc3ncc(C#N)c(Nc4cc(OC)c(OC)c(OC)c4)c3cc2cc1OCCN1CCN(C)CC1`, the melting point is 115 to 120 °C (dec.). In turn, `N#Cc1cnc2c(oc3ccccc32)c1Nc1ccc(Cl)cc1F` [Example 86, 4-(4-Chloro-2-fluorophenylamino)benzo[4,5]furo[3,2-b]pyridine-3-carbonitrile] returned a melting point of 259 to 261 °C. In the case of `N#Cc1cnc2cc3ccc(O)cc3cc2c1Nc1ccc(Cl)cc1Cl` [Example 105, 4-(2,4-Dichloroanilino)-7-hydroxybenzo[g]quinoline-3-carbonitrile], the melting point was > 300 °C. Molecule `COc1cc2cc3c(Nc4ccc(Sc5nccn5C)c(Cl)c4)c(C#N)cnc3cc2cc1OCCN1CCN(C)CC1` [Example 152, 4-[3-Chloro-4-(1-methyl-1H-imidazol-2-ylsulfanyl)phenylamino]-7-methoxy-8-[2-(4-methylpiperazin-1-yl)ethoxy]-benzo[g]quinoline-3-carbonitrile] returned a melting point of 184 to 186 °C.

Turning to `COc1ccc2cc3ncc(C#N)c(Nc4ccc(Cl)cc4Cl)c3cc2c1` [Example 103, 4-(2,4-Dichloroanilino)-7-methoxybenzo[g]quinoline-3-carbonitrile], the melting point lay within 215 to 217 °C. Regarding `CN(C)CCOc1ccc2cc3ncc(C#N)c(Nc4ccc(Cl)cc4Cl)c3cc2c1` [Example 107, 4-(2,4-Dichloroanilino)-7-[2-(dimethylamino)ethoxy]benzo[g]quinoline-3-carbonitrile], the melting point was in the range of 115 to 117 °C. As to `N#Cc1cnc2c(oc3ccccc32)c1Nc1cccc(Br)c1` [Example 85, 4-(3-Bromophenylamino)benzo[4,5]furo[3,2-b]pyridine-3-carbonitrile], the melting point was in the range of 242 to 245 °C. The same measure for `N#Cc1cnc2c(c1Nc1ccc(Oc3ccccc3)cc1)C=C1N=C(N)N=C1C2` [Example 34, 2-Amino-8-(4-phenoxyanilino)imidazo[4,5-g]quinoline-7-carbonitrile]: > 300 °C.

As to `COc1cc(Nc2c(C#N)cnc3cc4cc(OCCCl)c(OC)cc4cc23)c(Cl)cc1Cl` [Example 126, 4-(2,4-dichloro-5-methoxyanilino)-7-methoxy-8-(chloroethoxy)benzo[g]quinoline-3-carbonitrile], the melting point is 239 to 255 °C (dec.). As to `COc1cc(Nc2c(C#N)cnc3cc4ccccc4cc23)c(C)cc1Cl` [Example 5, 4-(4-Chloro-5-methoxy-2-methylanilino)benzo[g]quinoline-3-carbonitrile], the melting point lay within 195 to 197 °C. On to `COc1cc2cc3c(Nc4cc(OC)c(OC)c(OC)c4)c(C#N)cnc3nc2cc1OC` [Example 178, 7,8-Dimethoxy-4-(3,4,5-trimethoxyanilino)benzo[b][1,8]naphthyridine-3-carbonitrile], for which the melting point was 250 to 252 °C (dec.). Under `COc1cc2cc3ncc(C#N)c(Nc4ccc(OCc5ccccc5)c(Cl)c4)c3cc2cc1OCCCl` [Example 186, 4-(4-Benzyloxy-3-chlorophenylamino)-7-(2-chloroethoxy)-8-methoxybenzo[g]quinoline-3-carbonitrile] stands 182 to 185 °C.

In the case of `COc1cc(Nc2c(C#N)cnc3cc4cc(OCc5ccccc5)c(OC)cc4cc23)c(Cl)cc1F` [Example 219, 8-(Benzyloxy)-4-[(2-chloro-4-fluoro-5-methoxyphenyl)amino]-7-methoxybenzo[g]quinoline-3-carbonitrile], the melting point was 248 to 250 °C (dec.).

In turn, `COc1cc(Nc2c(C#N)cnc3c2C=C2N=C(NCCN4CCOCC4)N=C2C3)cc(OC)c1OC` [Example 33, 2-{[2-(4-Morpholinyl)ethyl]amino}-8-(3,4,5-trimethoxyanilino)imidazo[4,5-g]quinoline-7-carbonitrile] yielded a melting point of 175 to 178 °C.

Consider `COc1cc(Nc2c(C#N)cnc3nc4cc(OCCN5CCN(C)CC5)c(OC)cc4cc23)c(Cl)cc1Cl` [Example 175, 4-(2,4-Dichloro-5-methoxyanilino)-7-methoxy-8-[2-(4-methyl-1-piperazinyl)ethoxy]benzo[b][1,8]naphthyridine-3-carbonitrile], for which the melting point is 240 to 243 °C (dec.).

On to `COc1cc(Nc2c(C#N)cnc3cc4cc(OC)c(OCCN5CCC(O)CC5)cc4cc23)c(Cl)cc1Cl`, for which the melting point lay in the range of 150 to 160 °C.

For the origin of these results see patent publication US7105531B2, “Tricyclic protein kinase inhibitors” (WYETH, priority 1999, dated 2006).
